Entries after “also recorded” stand apart in the source; their conditions may differ.

For one data set, the system named is COS7 cells. The data set is described as follows: Jervine inhibition of cholesterol biosynthesis, [3H]-mevalonic acid labelling and HPLC sterol analysis. More on the design: radiolabelled cholesterol levels / another radiolabelled sterol, tentatively identified as zymosterol: dose or concentration left out as unconfirmed. Format: cell-based. The source says:
Given the structural similarities of these compounds to cholesterol and the similar teratogenic effects of cholesterol synthesis inhibitors upon the offspring of pregnant rats, a reasonable mechanism to consider for the effects of these plant sterol derivatives was the inhibition of cholesterol biosynthesis. Accordingly, we tested COS7 cultured cells treated with jervine for defects in cholesterol biosynthesis by labelling with [3H]-mevalonic acid and then extracting and analyzing radiolabelled, non-saponifiable lipids. […] Given the similarities in their teratogenic effects, this inhibition seems likely to underlie the teratogenic effects of both the synthetic and natural compounds.
Given the structural similarities of these compounds to cholesterol and the similar teratogenic effects of cholesterol synthesis inhibitors upon the offspring of pregnant rats, a reasonable mechanism to consider for the effects of these plant sterol derivatives was the inhibition of cholesterol biosynthesis. Accordingly, COS7 cultured cells treated with jervine were tested for defects in cholesterol biosynthesis by labelling with [3H]-mevalonic acid and then extracting and analyzing radiolabelled, non-saponifiable lipids. Metabolic labeling and sterol analysis was essentially as described (Popjak et al. J. Biol. Chem. 264: 630-6238.1989; Rilling et al. 1993 Arch. Biochem. Biophys. 301: 210-215.), with minor modifications. Briefly, COS-7 cells were plated at ˜35% confluence into two 60 mm dishes at 37° C. in 4 ml each of Dulbecco's modified Eagle's medium (DMEM) supplemented with 10% fetal bovine serum (FBS). After 24 hr of growth the medium in each dish was replaced with 2 ml fresh medium with 10% FBS; [^3H]-mevalonic acid (NEN #NET 176) brought to a specific activity of 0.8 Ci/mmol in a 1% solution of bovine serum albumin was added to this medium to a final concentration of […]. At this time, one dish received […] of a 4 mg/ml solution of jervine in ethanol (final concentration […] jervine), and the other received […] of ethanol. […]

Data set [1] deals with pregnant ewes / newborn lambs. Conditions: grazing by pregnant ewes; cited from earlier work.
The test system of data set [2] is enzymes of cholesterol biosynthesis. The note with it: cited from earlier work.
The subject of a further data set is pregnant rats. Conditions: treatment of pregnant rats; cited from earlier work.
Data set [3] relates to 7-dehydrocholesterol reductase. Conditions: cited from earlier work.
In another data set the target is T1, Hh protein (Drosophila melanogaster, UniProt Q02936).
T1 construct: made in house
T1 sequence (Q02936 1-471): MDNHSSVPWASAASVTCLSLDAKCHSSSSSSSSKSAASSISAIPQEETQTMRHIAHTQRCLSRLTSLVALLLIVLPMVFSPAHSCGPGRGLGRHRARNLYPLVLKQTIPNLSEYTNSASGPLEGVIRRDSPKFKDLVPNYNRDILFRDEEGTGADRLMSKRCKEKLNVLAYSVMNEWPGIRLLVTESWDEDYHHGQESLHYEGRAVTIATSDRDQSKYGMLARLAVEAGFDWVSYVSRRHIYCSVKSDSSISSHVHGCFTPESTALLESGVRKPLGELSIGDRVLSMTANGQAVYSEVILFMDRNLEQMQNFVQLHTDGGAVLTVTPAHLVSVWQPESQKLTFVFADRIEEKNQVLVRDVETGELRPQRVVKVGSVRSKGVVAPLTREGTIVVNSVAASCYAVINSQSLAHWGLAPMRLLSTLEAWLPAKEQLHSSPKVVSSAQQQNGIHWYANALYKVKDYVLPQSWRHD
The note with it: relatively low concentrations; nucleophile in the second step; cited from earlier work.

Another data set deals with mice. Conditions: mice with hypomorphic apoB mutation (truncated apoB, reduced cholesterol levels); cited from earlier work.
Setting [4] is: COS7 cells labelled with [3H]-mevalonic acid, 24 hr, jervine (b16 and b71 print 28=|M), versus ethanol control.

For `CC1=C2C(=O)[C@H]3[C@@H](CC=C4C[C@@H](O)CC[C@@]43C)[C@@H]2CC[C@]12O[C@@H]1C[C@H](C)CN[C@H]1[C@H]2C` [jervine], in the data set on COS7 cells (setting [4]), the “another radiolabelled sterol, tentatively identified as zymosterol” value is listed as “found to accumulate; also recorded: increased levels” and the radiolabelled cholesterol levels result is reported as “reduced levels”. Moreover, the “inhibition of cholesterol biosynthesis in cultured cells” value in the data set with COS7 cells (COS7 cells, jervine at these concentrations) was “inhibits cholesterol biosynthesis”. Besides, the “congenital craniofacial malformations in newborn lambs” value in data set [1] is “responsible”.
With `Cl.Cl.Clc1ccccc1CNCC1CCC(CNCc2ccccc2Cl)CC1` (stereo not drawn) [AY 9944R], in data set [2], the “sterol precursor abnormally accumulated” value was 7-dehydrocholesterol. Also, the “induction of HPE-like malformations” value in the data set with pregnant rats is “HPE-like malformations can be induced”. In addition, the “inhibition of 7-dehydrocholesterol reductase” value in data set [3] is recorded as “inhibited”.
For the compound `CC1=C2C[C@H]3[C@@H](CC=C4C[C@@H](O)CC[C@@]43C)[C@@H]2CC[C@]12O[C@@H]1C[C@H](C)CN[C@H]1[C@H]2C` [cyclopamine], in data set [1], the “congenital craniofacial malformations in newborn lambs” value is on record as “responsible”.
On to `CC(C)CCC[C@@H](C)[C@H]1CC[C@H]2[C@@H]3CC=C4C[C@@H](O)CC[C@]4(C)[C@H]3CC[C@]12C` [Cholesterol, cholesterol], for which the “effect on in vitro autoprocessing reaction” value on Hh protein is “stimulates”.
`CCN(CC)CCOc1ccc(C(O)(Cc2ccc(Cl)cc2)c2ccc(C)cc2)cc1` (stereo not drawn) [Triparanol]: the “sterol precursor abnormally accumulated” value in data set [2] is on record as “desmosterol”. Also, the “induction of HPE-like malformations” value in the data set with pregnant rats is “HPE-like malformations can be induced”.
Regarding `O=C(O)c1ccc(CCN2CCN(C/C=C/c3ccc(Cl)cc3)CC2)cc1` [BM 15.766], the “sterol precursor abnormally accumulated” value in data set [2] is listed as 7-dehydrocholesterol. Also, the “induction of HPE-like malformations” value in the data set on pregnant rats is recorded as “HPE-like malformations can be induced”. For the same compound, the “teratogenesis, resulting defects” value with mice is “severe holoprosencephaly”. In addition, in data set [3], the “inhibition of 7-dehydrocholesterol reductase” value was “inhibited”.
